Data: US10106556B2, “Heterocyclic compound” (TAKEDA PHARMACEUTICAL COMPANY LIMITED, priority 2015, dated 2018)

Molecular target: T1, His-hMAGL (recombinant polyhistidine tagged human MAGL protein) (Homo sapiens, UniProt Q99685)
T1 construct: made in house; host or cells: E. coli BL21(DE3)
T1 sequence (Q99685 1-303): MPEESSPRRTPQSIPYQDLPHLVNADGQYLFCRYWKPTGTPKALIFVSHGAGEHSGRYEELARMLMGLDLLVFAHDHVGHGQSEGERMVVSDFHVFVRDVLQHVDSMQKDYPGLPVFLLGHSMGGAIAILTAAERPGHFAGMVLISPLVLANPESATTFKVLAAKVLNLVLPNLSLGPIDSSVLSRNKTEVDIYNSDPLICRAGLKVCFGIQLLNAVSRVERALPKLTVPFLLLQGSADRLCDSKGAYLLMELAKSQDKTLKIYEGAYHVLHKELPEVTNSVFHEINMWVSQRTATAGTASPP
Experiment: Measurement of MAGL inhibitory activity (arachidonic acid production from 2-arachidonylglycerol, RapidFire-mass spectrometry)
Type: biochemical
Conditions: MAGL inhibitory rate at 10 μM test compound; 60 min preincubation with His-hMAGL, 2-arachidonylglycerol substrate, 10 min reaction at room temperature
Outline: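 Recombinant His-tagged human MAGL converted 2-arachidonylglycerol to arachidonic acid. Reactions received acetonitrile with 3 μM arachidonic acid-d8 as internal standard, and product was quantified by RapidFire SPE (C4) with negative-mode SRM mass spectrometry. Percent inhibition was calculated against compound-free and enzyme-free controls.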

Structure (SMILES)	inhibition at 10 µM [%]
O=C1COc2cc(F)c(C(=O)N3CC(COc4ccc(N5CC(F)C5)cc4F)C3)cc2N1 [Example 292, 7-fluoro-6-((3-((2-fluoro-4-(3-fluoroazetidin-1-yl)phenoxy)methyl)azetidin-1-yl)carbonyl)-2H-1,4-benzoxazin-3(4H)-one]	100
O=C(c1ccc2oc(=O)[nH]c2c1)N1CCC(COc2ccccc2Cl)CC1 [Example 29, 5-((4-((2-chlorophenoxy)methyl)piperidin-1-yl)carbonyl)-1,3-benzoxazol-2(3H)-one]	96
O=C1Cc2ccc(C(=O)N3CCC(COc4ccccc4Cl)CC3)cc2N1 [Example 28]	100
O=C1COc2cc(F)c(C(=O)N3CC(OCc4ccccc4)C3)cc2N1 [Example 327, 6-((3-(benzyloxy)azetidin-1-yl)carbonyl)-7-fluoro-2H-1,4-benzoxazin-3(4H)-one]	99
O=C1COc2cc(F)c(C(=O)N3CC(COc4cccc5scnc45)C3)cc2N1 [Example 105, 6-((3-((1,3-benzothiazol-4-yloxy)methyl)azetidin-1-yl)carbonyl)-7-fluoro-2H-1,4-benzoxazin-3(4H)-one]	97
Cc1ccc(OCC2CCN(C(=O)c3ccc4c(c3)NC(=O)CO4)CC2)c(Cl)n1 [Example 40, 6-((4-(((2-chloro-6-methylpyridin-3-yl)oxy)methyl)piperidin-1-yl)carbonyl)-2H-1,4-benzoxazin-3(4H)-one]	95
O=C1COc2ccc(C(=O)N3CC(OCc4ccc(F)cc4Cl)C3)cc2N1 [Example 323, 6-((3-((2-chloro-4-fluorobenzyl)oxy)azetidin-1-yl)carbonyl)-2H-1,4-benzoxazin-3(4H)-one]	99
O=C1COc2cc(F)c(C(=O)N3CC(OCc4cccc(C(F)F)c4)C3)cc2N1 [Example 339]	103
O=C1COc2cc(F)c(C(=O)N3CC(OCc4cccc(OC(F)F)c4)C3)cc2N1 [Example 340]	100
O=C1COc2ccc(C(=O)N3CCC(COc4ccccc4Cl)CC3)cc2N1 [Example 24, 6-((4-((2-chlorophenoxy)methyl)piperidin-1-yl)carbonyl)-2H-1,4-benzoxazin-3 (4H)-one]	101
N#Cc1ccc(COC2CN(C(=O)c3cc4c(cc3F)OCC(=O)N4)C2)cc1 [Example 335, 4-(((1-((7-fluoro-3-oxo-3,4-dihydro-2H-1,4-benzoxazin-6-yl)carbonyl)azetidin-3-yl)oxy)methyl) benzonitrile]	102
O=C1COc2cc(F)c(C(=O)N3CC(COc4ccc5c(c4)CCC5)C3)cc2N1 [Example 154, 6-((3-((2,3-dihydro-1H-inden-5-yloxy)methyl)azetidin-1-yl)carbonyl)-7-fluoro-2H-1,4-benzoxazin-3(4H)-one]	95
O=C1COc2cc(F)c(C(=O)N3CCC(COc4ccc(F)cc4-c4ccccc4)CC3)cc2N1 [Example 100, 7-fluoro-6-((4-(((5-fluorobiphenyl-2-yl)oxy)methyl)piperidin-1-yl)carbonyl)-2H-1,4-benzoxazin-3(4H)-one]	98
Cc1cc2c(cc1C(=O)N1CC(COc3ccc(F)cc3Cl)C1)NC(=O)CO2 [Example 88, 6-((3-((2-chloro-4-fluorophenoxy)methyl)azetidin-1-yl)carbonyl)-7-methyl-2H-1,4-benzoxazin-3 (4H)-one]	96
N#Cc1cccc(COC2CN(C(=O)c3cc4c(cc3F)OCC(=O)N4)C2)c1 [Example 334, 3-(((1-((7-fluoro-3-oxo-3,4-dihydro-2H-1,4-benzoxazin-6-yl)carbonyl)azetidin-3-yl)oxy)methyl) benzonitrile]	98
O=C1COc2cc(F)c(C(=O)N3CCC(COC4CCCCC4)CC3)cc2N1 [Example 80, 6-((4-((cyclohexyloxy)methyl)piperidin-1-yl)carbonyl)-7-fluoro-2H-1,4-benzoxazin-3(4H)-one]	100
O=C1COc2cc(F)c(C(=O)N3CC(OCc4ccc(C(F)F)cc4F)C3)cc2N1 [Example 352, 6-((3-((4-(difluoromethyl)-2-fluorobenzyl)oxy)azetidin-1-yl)carbonyl)-7-fluoro-2H-1,4-benzoxazin-3(4H)-one]	101
O=C1COc2ccc(C(=O)N3CCC(COc4ccnc(Cl)c4Cl)CC3)cc2N1 [Example 46, 6-((4-(((2,3-dichloropyridin-4-yl)oxy)methyl)piperidin-1-yl)carbonyl)-2H-1,4-benzoxazin-3(4H)-one]	98

More lines, now with the values ahead:

inhibition at 10 µM [%]	Structure (SMILES)
100	Cc1cccnc1-c1ccc(OCC2CN(C(=O)c3cc4c(cc3F)OCC(=O)N4)C2)c(F)c1 [Example 231, 7-fluoro-6-((3-((2-fluoro-4-(3-methylpyridin-2-yl)phenoxy)methyl)azetidin-1-yl)carbonyl)-2H-1,4-benzoxazin-3(4H)-one]
100	O=C1COc2cc(F)c(C(=O)N3CC(COc4ccc(-c5cncc(Cl)c5)cc4F)C3)cc2N1 [Example 235, 6-((3-((4-(5-chloropyridin-3-yl)-2-fluorophenoxy)methyl)azetidin-1-yl)carbonyl)-7-fluoro-2H-1,4-benzoxazin-3(4H)-one]
97	Cc1ccc(-c2ccc(OCC3CN(C(=O)c4cc5c(cc4F)OCC(=O)N5)C3)c(F)c2)cn1 [Example 263, 7-fluoro-6-((3-((2-fluoro-4-(6-methylpyridin-3-yl)phenoxy)methyl)azetidin-1-yl)carbonyl)-2H-1,4-benzoxazin-3(4H)-one]
95	Cc1cccc(-c2ccc(OCC3CN(C(=O)c4cc5c(cc4F)OCC(=O)N5)C3)c(F)c2)n1 [Example 230, 7-fluoro-6-((3-((2-fluoro-4-(6-methylpyridin-2-yl)phenoxy)methyl)azetidin-1-yl)carbonyl)-2H-1,4-benzoxazin-3(4H)-one]
102	O=C1COc2cc(F)c(C(=O)N3CC(COc4ccc(Cl)cc4-c4ccccn4)C3)cc2N1 [Example 189, 6-((3-((4-chloro-2-(pyridin-2-yl)phenoxy)methyl)azetidin-1-yl)carbonyl)-7-fluoro-2H-1,4-benzoxazin-3(4H)-one]
99	Cc1nn(C)cc1-c1cc(Cl)ccc1OCC1CN(C(=O)c2cc3c(cc2F)OCC(=O)N3)C1 [Example 265, 6-((3-((4-chloro-2-(1,3-dimethyl-1H-pyrazol-4-yl)phenoxy)methyl)azetidin-1-yl)carbonyl)-7-fluoro-2H-1,4-benzoxazin-3(4H)-one]
101	O=C1COc2cc(F)c(C(=O)N3CC(COc4ccc(Cl)cc4-c4cnc(C(F)(F)F)nc4)C3)cc2N1 [Example 222, 6-((3-((4-chloro-2-(2-(trifluoromethyl)pyrimidin-5-yl)phenoxy)methyl)azetidin-1-yl)carbonyl)-7-fluoro-2H-1,4-benzoxazin-3(4H)-one]
100	Cc1cc(OCC2CN(C(=O)c3cc4c(cc3F)OCC(=O)N4)C2)ccc1Cl [Example 184, 6-((3-((4-chloro-3-methylphenoxy)methyl)azetidin-1-yl)carbonyl)-7-fluoro-2H-1,4-benzoxazin-3(4H)-one]
100	O=C1COc2cc(F)c(C(=O)N3CC(COc4ccc(Cl)c(Cl)c4)C3)cc2N1 [Example 124, 6-((3-((3,4-dichlorophenoxy)methyl)azetidin-1-yl)carbonyl)-7-fluoro-2H-1,4-benzoxazin-3(4H)-one]
